The test system of data set [1] is hens. Particulars: cited from earlier work.
The subject of data set [2] is Hy-line laying hens. In words: Monacolin K residue remained in eggs (HPLC). Particulars: hens fed basal diet containing 0.056% monacolin K (highest red mold rice content) for 42 days, FIG. 3. It counts as in vivo, hen. The procedure: The method for determining whether there is any monacolin K residue remained comprised the following steps. 20 mL acetonitrile-water (9:1, v/v) is added into 10 grams of egg samples (including yolk samples and albumen samples which are separated from eggs laid by hens fed with red mold rice of the highest content for 42 days), vibrated for 60 min through ultrasonic vibration, stirred and mixed for 15 min. Then, after the solid is separated off through a Whatman No. 1 filter paper, equal volume of acetonitrile is added into a 4 mL egg sample, filtered via a filter membrane of 0.45 μm pore size, and analyzed thgrough HPLC. The operating conditions for performing HPLC analysis were described as above.

Where two headings read alike, the source gives them in different places.

This is an account of results in patent publication US7157107B2, “Method for producing eggs with low cholesterol level” (priority 2004, dated 2007).

As for `CC[C@H](C)C(=O)O[C@H]1C[C@@H](C)C=C2C=C[C@H](C)[C@H](CC[C@@H]3C[C@@H](O)CC(=O)O3)[C@H]21` [lovastatin], the “Lowering of egg cholesterol concentration” value is recorded as 7.5% in data set [1] (0.0005% lovastatin, hens of 30 weeks old, feed for 12 weeks (Mori et al.)); 12.7% in data set [1] (0.0015% lovastatin, hens of 30 weeks old, feed for 12 weeks (Mori et al.)); 4% in data set [1] (0.03% lovastatin, hens of 18 weeks old, feed for 5 weeks (Elkin and Yan)); 7% in data set [1] (0.06% lovastatin, hens of 18 weeks old, feed for 5 weeks (Elkin and Yan)). Besides, in data set [1] (0.0035% lovastatin, hens of 69 weeks old, feed for 5 weeks (Luhman et al.)), the “Decrease in egg cholesterol concentration” value is listed as “no significant decrease”. In addition, in data set [1] (0.2407% lovastatin in feed for 9 days (Elkin and Rogler)), the “Decrease of egg cholesterol” value is 13%. In addition, the “Monacolin K residue in eggs (yolk and egg white)” value in data set [2] is on record as “no monacolin K residue”.
